The compounds below were run on HCV 1b_Huh-Luc/Neo-ET cell line persistently expressing a bicistronic genotype 1b replicon in Huh 7 cells (assay: HCV replicon assay (luciferase readout)). Conditions: Hepatitis C virus, Huh-7, 72 h, read-out: Inhibition of HCV genotype 1b.
Type: cell-based
In short: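 EC50, determined repeatedly, comes from a four-parameter logistic fit of luciferase signal as percent of untreated control. Readout follows 72 h compound exposure, in triplicate, of the HCV 1b_Huh-Luc/Neo-ET replicon line.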
COC(=O)N[C@@H](C(=O)N1CCC[C@H]1c1ncc(-c2ccc(C#Cc3ccc(-c4cnc([C@@H]5CCCN5C(=O)[C@H](NC(=O)OC)c5ccccc5)[nH]4)c(F)c3)cc2)[nH]1)c1ccccc1 [Compound 1013] was tested, and the EC50 was < 1 nM.
In the case of O=C(N[C@@H](C(=O)N1CCC[C@H]1c1ncc(-c2ccc(C#Cc3ccc(-c4cnc([C@@H]5CCCN5C(=O)[C@H](NC(=O)OC5CCOCC5)c5ccccc5)[nH]4)c(F)c3)cc2)[nH]1)c1ccccc1)OC1CCOCC1 [Compound 1014], the EC50 is reported as < 1 nM.
With COC(=O)N[C@H](C(=O)N1CCC[C@H]1c1ncc(-c2ccc(C#Cc3ccc4nc([C@@H]5CCCN5C(=O)[C@@H](C(C)C)N(C)C)[nH]c4c3)cc2)[nH]1)C(C)C [Compound 1020] the EC50 was < 1 nM.
COC(=O)N[C@H](C(=O)N1CCC[C@H]1c1ncc(-c2ccc(C#Cc3ccc4nc([C@@H]5CCCN5C(=O)[C@H](C(C)C)N(C)C)[nH]c4c3)cc2)[nH]1)C(C)C [Compound 1021] was tested, and the EC50 was < 1 nM.
In the case of COC(=O)N[C@H](C(=O)N1CCC[C@H]1c1nc2ccc(C#Cc3ccc(-c4cnc([C@@H]5CCCN5C(=O)[C@H](NC(=O)OC)c5ccccc5)[nH]4)cc3)cc2[nH]1)C(C)C [Compound 1022], the EC50 is reported as < 1 nM.
In the case of COC(=O)N[C@H](C(=O)N1CCC[C@H]1c1ncc(-c2ccc(C#Cc3ccc4nc([C@@H]5CCCN5C(=O)[C@H](NC(=O)OC)c5ccccc5)[nH]c4c3)cc2)[nH]1)C(C)C [Compound 1023], the EC50 is reported as < 1 nM.
For CC[C@@H](C)[C@H](NC(=O)OC)C(=O)N1CCC[C@H]1c1ncc(-c2ccc(C#Cc3ccc4nc([C@@H]5CCCN5C(=O)[C@@H](NC(=O)OC)[C@H](C)CC)[nH]c4c3)cc2)[nH]1 [Compound 1024], the EC50 was < 1 nM.
With COC(=O)N[C@H](C(=O)N1CCC[C@H]1c1ncc(-c2ccc(C#Cc3ccc4nc([C@@H]5CCCN5C(=O)[C@@H](NC(=O)OC)C5CCCC5)[nH]c4c3)cc2)[nH]1)C1CCCC1 [Compound 1025] the EC50 was < 1 nM.
With COC(=O)N[C@H](C(=O)N1CSC[C@H]1c1ncc(-c2ccc(C#Cc3ccc4nc([C@@H]5CCCN5C(=O)[C@@H](NC(=O)OC)C(C)C)[nH]c4c3)cc2)[nH]1)C(C)C [Compound 1026] the EC50 was < 1 nM.
For COC(=O)N[C@H](C(=O)N1CCOC[C@H]1c1ncc(-c2ccc(C#Cc3ccc4nc([C@@H]5CCCN5C(=O)[C@@H](NC(=O)OC)C(C)C)[nH]c4c3)cc2)[nH]1)C(C)C [Compound 1027], the EC50 was < 1 nM.
For COC(=O)N[C@@H](C)C(=O)N1CCC[C@H]1c1ncc(-c2ccc(C#Cc3ccc4nc([C@@H]5CCCN5C(=O)[C@H](C)NC(=O)OC)[nH]c4c3)cc2)[nH]1 [Compound 1028], the EC50 was < 1 nM.
With COC(=O)N[C@H](C(=O)N1CCC[C@H]1c1ncc(-c2ccc(C#Cc3ccc4nc([C@@H]5CCCN5C(=O)[C@@H](NC(=O)OC)C5CC5)[nH]c4c3)cc2)[nH]1)C1CC1 [Compound 1029] the EC50 was < 1 nM.
CCC(CC)[C@H](NC(=O)OC)C(=O)N1CCC[C@H]1c1ncc(-c2ccc(C#Cc3ccc4nc([C@@H]5CCCN5C(=O)[C@@H](NC(=O)OC)C(CC)CC)[nH]c4c3)cc2)[nH]1 [Compound 1030] was tested, and the EC50 was < 1 nM.
COC(=O)N[C@H](C(=O)N1CCC[C@H]1c1ncc(-c2ccc(C#Cc3ccc4nc([C@@H]5CCCN5C(=O)[C@@H](NC(=O)OC)[C@H](C)O)[nH]c4c3)cc2)[nH]1)[C@H](C)O [Compound 1031] was tested, and the EC50 was < 1 nM.
In the case of COC(=O)N[C@H](C(=O)N1CCCC[C@H]1c1ncc(-c2ccc(C#Cc3ccc4nc([C@@H]5CCCN5C(=O)[C@@H](NC(=O)OC)C(C)C)[nH]c4c3)cc2)[nH]1)C(C)C [Compound 1032], the EC50 is reported as < 1 nM.
In the case of COC(=O)N[C@H](C(=O)N1CCC[C@H]1c1ncc(-c2ccc(C#Cc3ccc4nc([C@@H]5CCCN5C(=O)[C@@H](NC(=O)OC)C(C)C)[nH]c4c3)nc2)[nH]1)C(C)C [Compound 1033], the EC50 is reported as < 1 nM.
CC(C)(C)OC(=O)N1CCCC1c1ncc(-c2ccc(C#Cc3ccc4nc([C@@H]5CCCN5C(=O)OC(C)(C)C)[nH]c4c3)cc2)[nH]1 (stereo partly drawn) [Compound 1034] gave an EC50 of 1 to 9.9 nM.
With C(#Cc1ccc2nc([C@@H]3CCCN3)[nH]c2c1)c1ccc(-c2cnc([C@@H]3CCCN3)[nH]2)cc1 [Compound 1035] the EC50 was 10 to 999 nM.
For CC[C@H](NC(=O)OC)C(=O)N1CCC[C@H]1c1ncc(-c2ccc(C#Cc3ccc4nc([C@@H]5CCCN5C(=O)[C@H](CC)NC(=O)OC)[nH]c4c3)cc2)[nH]1 [Compound 1036], the EC50 was < 1 nM.
COC[C@H](NC(=O)OC)C(=O)N1CCC[C@H]1c1ncc(-c2ccc(C#Cc3ccc4nc([C@@H]5CCCN5C(=O)[C@H](COC)NC(=O)OC)[nH]c4c3)cc2)[nH]1 [Compound 1037] was tested, and the EC50 was < 1 nM.
For O=S(=O)(c1ccccc1)N1CCC[C@H]1c1ncc(-c2ccc(C#Cc3ccc4nc([C@@H]5CCCN5S(=O)(=O)c5ccccc5)[nH]c4c3)cc2)[nH]1 [Compound 1038], the EC50 was > 1000 nM.
With CC(C)[C@@H](C(=O)N1CCC[C@H]1c1ncc(-c2ccc(C#Cc3ccc4nc([C@@H]5CCCN5C(=O)[C@H](C(C)C)N5CCOC5=O)[nH]c4c3)cc2)[nH]1)N1CCOC1=O [Compound 1039] the EC50 was 1 to 9.9 nM.
For COC(=O)N[C@H](C(=O)N1C[C@H](F)C[C@H]1c1ncc(-c2ccc(C#Cc3ccc4nc([C@@H]5CCCN5C(=O)[C@@H](NC(=O)OC)C(C)C)[nH]c4c3)cc2)[nH]1)C(C)C [Compound 1040], the EC50 was < 1 nM.
For COC(=O)N[C@H](C(=O)N1CCC[C@H]1c1ncc(-c2ccc(C#Cc3ccc4nc([C@@H]5CCCN5C(=O)[C@@H](NC(=O)OC)C(C)(C)C)[nH]c4c3)cc2)[nH]1)C(C)(C)C [Compound 1041], the EC50 was < 1 nM.
In the case of O=S(=O)(Cc1ccccc1)N1CCC[C@H]1c1ncc(-c2ccc(C#Cc3ccc4nc([C@@H]5CCCN5S(=O)(=O)Cc5ccccc5)[nH]c4c3)cc2)[nH]1 [Compound 1042], the EC50 is reported as > 1000 nM.
In the case of COC(=O)NC1(C(=O)N2CCC[C@H]2c2ncc(-c3ccc(C#Cc4ccc5nc([C@@H]6CCCN6C(=O)C6(NC(=O)OC)CC6)[nH]c5c4)cc3)[nH]2)CC1 [Compound 1043], the EC50 is reported as 10 to 999 nM.
With COC(=O)NC1(C(=O)N2CCC[C@H]2c2ncc(-c3ccc(C#Cc4ccc5nc([C@@H]6CCCN6C(=O)C6(NC(=O)OC)CCCC6)[nH]c5c4)cc3)[nH]2)CCCC1 [Compound 1044] the EC50 was 10 to 999 nM.
In the case of COC(=O)N[C@@H](Cc1ccccc1)C(=O)N1CCC[C@H]1c1ncc(-c2ccc(C#Cc3ccc4nc([C@@H]5CCCN5C(=O)[C@H](Cc5ccccc5)NC(=O)OC)[nH]c4c3)cc2)[nH]1 [Compound 1045], the EC50 is reported as < 1 nM.
In the case of COC(=O)N[C@@H](CC(N)=O)C(=O)N1CCC[C@H]1c1ncc(-c2ccc(C#Cc3ccc4nc([C@@H]5CCCN5C(=O)[C@H](CC(N)=O)NC(=O)OC)[nH]c4c3)cc2)[nH]1 [Compound 1046], the EC50 is reported as 1 to 9.9 nM.
For COC(=O)N[C@@H](CCC(=O)O)C(=O)N1CCC[C@H]1c1ncc(-c2ccc(C#Cc3ccc4nc([C@@H]5CCCN5C(=O)[C@H](CCC(=O)O)NC(=O)OC)[nH]c4c3)cc2)[nH]1 [Compound 1047], the EC50 was 10 to 999 nM.
Work on COC(=O)N[C@@H](Cc1cnc[nH]1)C(=O)N1CCC[C@H]1c1ncc(-c2ccc(C#Cc3ccc4nc([C@@H]5CCCN5C(=O)[C@H](Cc5cnc[nH]5)NC(=O)OC)[nH]c4c3)cc2)[nH]1 [Compound 1048] yielded an EC50 of 1 to 9.9 nM.
Work on COC(=O)NCC(=O)N1CCC[C@H]1c1ncc(-c2ccc(C#Cc3ccc4nc([C@@H]5CCCN5C(=O)CNC(=O)OC)[nH]c4c3)cc2)[nH]1 [Compound 1049] yielded an EC50 of 10 to 999 nM.
COC(=O)NC(C)(C)C(=O)N1CCC[C@H]1c1ncc(-c2ccc(C#Cc3ccc4nc([C@@H]5CCCN5C(=O)C(C)(C)NC(=O)OC)[nH]c4c3)cc2)[nH]1 [Compound 1050] gave an EC50 of 10 to 999 nM.
COC(=O)N[C@@H](CCC(N)=O)C(=O)N1CCC[C@H]1c1ncc(-c2ccc(C#Cc3ccc4nc([C@@H]5CCCN5C(=O)[C@H](CCC(N)=O)NC(=O)OC)[nH]c4c3)cc2)[nH]1 [Compound 1051] showed an EC50 of 1 to 9.9 nM.
With C(#Cc1ccc2nc([C@@H]3CCCN3Cc3ccccc3)[nH]c2c1)c1ccc(-c2cnc([C@@H]3CCCN3Cc3ccccc3)[nH]2)cc1 [Compound 1052] the EC50 was > 1000 nM.
With COC(=O)N[C@H](C(=O)N1CCC[C@H]1c1nc2ccc(C#Cc3ccc(-c4cnc([C@@H]5CCCN5C(=O)[C@H](NC(=O)OC)C(C)C)[nH]4)cc3)cc2[nH]1)C(C)C [Compound 1053] the EC50 was < 1 nM.
For COC(=O)N[C@H](C(=O)N1CCC[C@H]1c1ncc(-c2ccc(C#Cc3ccc4nc([C@@H]5CCCN5C(=O)[C@H](NC(=O)OC)C(C)C)[nH]c4c3)cc2)[nH]1)C(C)C [Compound 1054], the EC50 was < 1 nM.
Work on COC(=O)N[C@H](C(=O)N1CCC[C@H]1c1nc2ccc(C#Cc3ccc(-c4cnc([C@@H]5CCCN5)[nH]4)cc3)cc2[nH]1)C(C)C [Compound 1055] yielded an EC50 of 10 to 999 nM.
Work on COC(=O)N[C@H](C(=O)N1CCC[C@H]1c1ncc(-c2ccc(C#Cc3ccc4nc([C@@H]5CCCN5)[nH]c4c3)cc2)[nH]1)C(C)C [Compound 1056] yielded an EC50 of 10 to 999 nM.
With COC(=O)N[C@@H](Cc1c[nH]c2ccccc12)C(=O)N1CCC[C@H]1c1ncc(-c2ccc(C#Cc3ccc4nc([C@@H]5CCCN5C(=O)[C@H](Cc5c[nH]c6ccccc56)NC(=O)OC)[nH]c4c3)cc2)[nH]1 [Compound 1057] the EC50 was < 1 nM.
COC(=O)N[C@@H]1CCC[C@H]1C(=O)N1CCC[C@H]1c1ncc(-c2ccc(C#Cc3ccc4nc([C@@H]5CCCN5C(=O)[C@@H]5CCC[C@H]5NC(=O)OC)[nH]c4c3)cc2)[nH]1 [Compound 1058] was tested, and the EC50 was 10 to 999 nM.
COC(=O)N[C@H]1CCC[C@@H]1C(=O)N1CCC[C@H]1c1ncc(-c2ccc(C#Cc3ccc4nc([C@@H]5CCCN5C(=O)[C@H]5CCC[C@@H]5NC(=O)OC)[nH]c4c3)cc2)[nH]1 [Compound 1059] gave an EC50 of 10 to 999 nM.
For COC(=O)N[C@H](C(=O)N1CCC[C@H]1c1ncc(-c2cc(C)c(C#Cc3ccc4nc([C@@H]5CCCN5C(=O)[C@@H](NC(=O)OC)C(C)C)[nH]c4c3)c(C)c2)[nH]1)C(C)C [Compound 1060], the EC50 was < 1 nM.
With COC(=O)N[C@@H](CC(=O)O)C(=O)N1CCC[C@H]1c1ncc(-c2ccc(C#Cc3ccc4nc([C@@H]5CCCN5C(=O)[C@H](CC(=O)O)NC(=O)OC)[nH]c4c3)cc2)[nH]1 [Compound 1061] the EC50 was 10 to 999 nM.
COC(=O)N[C@H](C(=O)N1CCSC[C@H]1c1ncc(-c2ccc(C#Cc3ccc4nc([C@@H]5CCCN5C(=O)[C@@H](NC(=O)OC)C(C)C)[nH]c4c3)cc2)[nH]1)C(C)C [Compound 1062] was tested, and the EC50 was < 1 nM.
